# Reference: patent publication US10039284B2, “Pesticidal compositions” (priority 2006, dated 2018)
# “And” between values parts separate entries of the source, which are not always exact repeats. Equal values may be shown once.
# Experiments:
# [1] = system: Common Cutworm (Spodoptera litura); assay: whole plant or invertebrate; details: Compound No. 1 alone 0.02 ppm; 5th or 6th day
# Protocol: They were diluted to a predetermined concentration with water containing a spreader (Shin-Rinoh 0.040) and subjected to the test by themselves or as a mixed liquid.
# A leaf segment of cabbage was dipped for about 10 seconds in an insecticidal solution and dried in air. A wet filter paper was laid in a petri dish having a diameter of 9 cm, and the dried leaf segment of cabbage was placed thereon. 10 Second-instar larvae of common cutworm were released therein and after putting a cover, left in a constant temperature chamber at 25° C. with lightening. On the 5th or 6th day after release, dead larvae were counted, and the mortality was calculated by the following equation. Here, the insects that were moribund were counted as dead insects. Mortality (%)={(number of dead insects)/(number of surviving insects+number of dead insects)}×100
# Further, the theoretical mortality (%) can be calculated from the colby's formula.
# [2] = system: Green Rice Leafhopper (Nephotettix cincticeps); assay: Test on Controlling Effects Against Green Rice Leafhopper (rice seedling dip); format: in vivo; details: Compound No. 1 alone 0.4 ppm; 5th or 6th day
# From the text: The root was wrapped with absorbent cotton wet with water, and the rice seedling was put in a test tube.
# [3] = system: Green Peach Aphid (Myzus persicae); assay: Test on Controlling Effects Against Green Peach Aphid (radish leaf dip); format: in vivo; details: third day after the dipping
# Protocol: Japanese radish leaf (cut into about 2 cm×3 cm) was put in a test tube in which water was put, and Larvae of green peach aphid were released on the leaf. […] On the third day after the dipping, dead larvae were counted, and the mortality was calculated from the following equation. Aphids that dropped from leaf or were moribund were included in the number of dead. […] Mortality (%)=(number of dead insects/number of treated insects)×100
smiles,measurement,setting,value
"CC(NC(=O)c1cc(Cl)cc(Br)c1NC(=O)c1cc(Br)nn1-c1ncccc1Cl)C1CC1 (stereo not drawn) [Compound No. 1, N-[2-bromo-4-chloro-6-[[α-methyl-(cyclopropylmethyl)amino]carbonyl]-phenyl]-3-bromo-1-(3-chloro-2-pyridyl)-1H-pyrazole-5-carboxamide]",Mortality (%),[1],100% and 90% and 70% and 60% and 50%
same,Mortality (%),[2],30% and 50%
same,Mortality (%),[3]; Compound No. 1 alone 0.8 ppm,8% and 11%
same,Mortality (%),[3]; Compound No. 1 alone 1.5 ppm,46% and 28%
